Patent publication US5733927A, “Salts of glucopyranose derivative and solutions of the same” (Ono Pharmaceutical Co., Ltd., priority 1992, dated 1998)
In brackets after ≈: the same amount, converted by molar mass. Counter-ions that a name gives are not always drawn.

Experiments:
[1] = Solubility in a mixture of water-ethanol (1:1) at 25° C. (Table 1); format: physicochemical
[2] = Solubility for injectable solvents / the solvent for the administration (stated in words); format: physicochemical; settings: for solubility for the solvent for the administration: compared with the mixture of salts of the formula (B) and calcium salt
[3] = Pharmacological activity (lipid A-like activity; stated in words, no test described); settings: sufficiency for use as a pharmaceutical agent

Row | Compound | Solubility [1] | solubility for the solvent for the administration [2] | solubility for injectable solvents ([2]; injectable solvents) | pharmacological activity [3]
1 | CCCCCCCCCCC[C@@H](CC(=O)N[C@H]1C(O)O[C@H](CO)[C@@H](OS(=O)(=O)O)[C@@H]1OC(=O)CCCCCCCCc1ccccc1)OC(=O)CCCCCCCCc1ccccc1 (mixture of isomers) [Reference example 5, mixture salt of calcium, sodium and magnesium of 2-deoxy-2-[(3S)-(9-phenylnonanoyloxy)tetradecanoyl]amino-3-O-(9-phenylnonanoyl)-4-O-sulfo-D-glucopyranose, reference compound] | 1.5 mg/mL |  |  | 
2 | CCCCCCCCCCC[C@@H](CC(=O)N[C@H]1C(O)O[C@H](CO)[C@@H](OS(=O)(=O)O)[C@@H]1OC(=O)CCCCCCCCc1ccccc1)OC(=O)CCCCCCCCc1ccccc1 (single isomer, unassigned) [Example 3] | 212 mg/mL (≈ 231 mM) | very good solubility |  | 
3 | CCCCCCCCCCC[C@@H](CC(=O)N[C@H]1C(O)O[C@H](CO)[C@@H](OS(=O)(=O)O)[C@@H]1OC(=O)CCCCCCCCc1ccccc1)OC(=O)CCCCCCCCc1ccccc1 (single isomer, unassigned) [Example 4] | > 270 mg/mL | very good solubility |  | 
4 | CCCCCCCCCCC[C@@H](CC(=O)N[C@H]1C(O)O[C@H](CO)[C@@H](OS(=O)(=O)O)[C@@H]1OC(=O)CCCCCCCCc1ccccc1)OC(=O)CCCCCCCCc1ccccc1 (stereo partly drawn) [formula (Aa), 2-Deoxy-2-[(3S)-(9-phenylnonanoyloxy)tetradecanoyl]amino-3-O-(9-phenylnonanoyl)-4-O-sulfo-D-glucopyranose, reference compound] |  |  | very poor | sufficient pharmacological activity
